Source: PubChem BioAssay (NCI)
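Each compound was tested at five concentrations against cells in 96-well plates for 48 hours. TGI: total growth inhibition.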

How the values were obtained:
Assay in all cases: NCI anticancer screen, dose series, 48 h
[1] = system: 786-0 renal
[2] = system: A498 renal
[3] = system: A549 NSCLC
[4] = system: ACHN renal
[5] = system: CAKI-1 renal
[6] = system: CCRF-CEM leukemia
[7] = system: COLO 205 colon
[8] = system: DMS 114 small cell lung
[9] = system: DMS 273 small cell lung
[10] = system: EKVX NSCLC
[11] = system: HCC-2998 colon
[12] = system: HCT-116 colon
[13] = system: HCT-15 colon
[14] = system: HL-60(TB) leukemia
[15] = system: HOP-92 NSCLC
[16] = system: HT29 colon
[17] = system: K-562 leukemia
[18] = system: KM12 colon
[19] = system: KM20L2 colon
[20] = system: LOX IMVI melanoma
[21] = system: LXFL 529 NSCLC
[22] = system: M14 melanoma
[23] = system: MOLT-4 leukemia
[24] = system: NCI-H226 lung
[25] = system: NCI-H23 lung
[26] = system: NCI-H460 lung
[27] = system: NCI-H522 lung
[28] = system: OVCAR-3 ovarian
[29] = system: OVCAR-4 ovarian
[30] = system: OVCAR-5 ovarian
[31] = system: OVCAR-8 ovarian
[32] = system: RPMI-8226 leukemia
[33] = system: RXF 393 renal
[34] = system: SF-268 CNS
[35] = system: SF-295 CNS
[36] = system: SF-539 CNS
[37] = system: SK-MEL-2 melanoma
[38] = system: SK-MEL-28 melanoma
[39] = system: SN12C renal
[40] = system: SNB-19 CNS
[41] = system: SNB-78 CNS
[42] = system: SR leukemia
[43] = system: SW-620 colon
[44] = system: TK-10 renal
[45] = system: UACC-257 melanoma
[46] = system: UO-31 renal
[47] = system: BT-549 breast
[48] = system: DU-145 prostate
[49] = system: HOP-62 NSCLC
[50] = system: HS 578T breast
[51] = system: IGROV1 ovarian
[52] = system: MALME-3M melanoma
[53] = system: MCF7 breast
[54] = system: MDA-MB-231 breast
[55] = system: MDA-MB-435
[56] = system: MDA-N
[57] = system: NCI/ADR-RES ovarian
[58] = system: PC-3 prostate
[59] = system: SK-MEL-5 melanoma
[60] = system: SK-OV-3 ovarian
[61] = system: SNB-75 CNS
[62] = system: T-47D breast
[63] = system: U251 CNS
[64] = system: UACC-62 melanoma

Nc1nnc2c(-c3ccccc3)[nH]nc2n1
TGI [1]: > 100 µM
TGI [2]: > 100 µM
TGI [3]: > 100 µM
TGI [4]: > 100 µM
TGI [5]: > 100 µM
TGI [6]: > 100 µM
TGI [7]: > 100 µM
TGI [8]: > 100 µM
TGI [9]: > 100 µM
TGI [10]: > 100 µM
TGI [11]: > 100 µM
TGI [12]: > 100 µM
TGI [13]: > 100 µM
TGI [14]: > 100 µM
TGI [15]: 63.6 µM
TGI [16]: > 100 µM
TGI [17]: > 100 µM
TGI [18]: > 100 µM
TGI [19]: > 100 µM
TGI [20]: > 100 µM
TGI [21]: > 100 µM
TGI [22]: > 100 µM
TGI [23]: > 100 µM
TGI [24]: > 100 µM
TGI [25]: > 100 µM
TGI [26]: > 100 µM
TGI [27]: > 100 µM
TGI [28]: > 100 µM
TGI [29]: > 100 µM
TGI [30]: > 100 µM
TGI [31]: > 100 µM
TGI [32]: > 100 µM
TGI [33]: > 100 µM
TGI [34]: 58.7 µM
TGI [35]: > 100 µM
TGI [36]: > 100 µM
TGI [37]: > 100 µM
TGI [38]: > 100 µM
TGI [39]: > 100 µM
TGI [40]: > 100 µM
TGI [41]: > 100 µM
TGI [42]: > 100 µM
TGI [43]: > 100 µM
TGI [44]: > 100 µM
TGI [45]: > 100 µM
TGI [46]: > 100 µM

COc1ccc(C(O)/C(=N/N)c2nc3ccc(Cl)cc3[nH]c2=O)cc1 (stereo not given)
TGI [1]: > 100 µM
TGI [2]: > 100 µM
TGI [3]: > 100 µM
TGI [4]: > 100 µM
TGI [47]: > 100 µM
TGI [5]: > 100 µM
TGI [6]: > 100 µM
TGI [7]: > 100 µM
TGI [48]: > 100 µM
TGI [10]: > 100 µM
TGI [11]: > 100 µM
TGI [12]: > 100 µM
TGI [13]: > 100 µM
TGI [14]: > 100 µM
TGI [49]: > 100 µM
TGI [15]: > 100 µM
TGI [50]: > 100 µM
TGI [16]: > 100 µM
TGI [51]: > 100 µM
TGI [17]: > 100 µM
TGI [18]: > 100 µM
TGI [20]: > 100 µM
TGI [22]: > 100 µM
TGI [52]: > 100 µM
TGI [53]: > 100 µM
TGI [54]: > 100 µM
TGI [55]: > 100 µM
TGI [56]: > 100 µM
TGI [23]: > 100 µM
TGI [24]: > 100 µM
TGI [25]: > 100 µM
TGI [26]: > 100 µM
TGI [27]: > 100 µM
TGI [57]: > 100 µM
TGI [28]: > 100 µM
TGI [29]: > 100 µM
TGI [30]: > 100 µM
TGI [31]: > 100 µM
TGI [58]: > 100 µM
TGI [32]: > 100 µM
TGI [33]: > 100 µM
TGI [34]: > 100 µM
TGI [35]: > 100 µM
TGI [36]: > 100 µM
TGI [37]: > 100 µM
TGI [38]: > 100 µM
TGI [59]: > 100 µM
TGI [60]: > 100 µM
TGI [39]: > 100 µM
TGI [40]: > 100 µM
TGI [61]: > 100 µM
TGI [42]: > 100 µM
TGI [43]: > 100 µM
TGI [62]: > 100 µM
TGI [44]: > 100 µM
TGI [63]: > 100 µM
TGI [45]: > 100 µM
TGI [64]: > 100 µM
TGI [46]: > 100 µM
